From ChEMBL document CHEMBL6092226, “Tilting the Scales toward EGFR Mutant Selectivity: Expanding the Scope of Bivalent "Type V" Kinase Inhibitors” (J Med Chem, 2024)
Active and inactive are the calls of the source. The calls are words filed in the database; no cut-off is given here.

Experiments:
[1] = Metabolic stability in pooled male human liver microsomes at 150 uM measured after 2 hrs in presence of NADPH regenerating system by LC-MS analysis; assay type: ADME, Microsome
[2] = molecular target: T1, Tyrosine-protein kinase ITK/TSK (Homo sapiens) (UniProt Q08881); assay: Inhibition of ITK (unknown origin) at 1 uM by Eurofins DiscoverX KINOMEscan analysis
T1 sequence (whole entry): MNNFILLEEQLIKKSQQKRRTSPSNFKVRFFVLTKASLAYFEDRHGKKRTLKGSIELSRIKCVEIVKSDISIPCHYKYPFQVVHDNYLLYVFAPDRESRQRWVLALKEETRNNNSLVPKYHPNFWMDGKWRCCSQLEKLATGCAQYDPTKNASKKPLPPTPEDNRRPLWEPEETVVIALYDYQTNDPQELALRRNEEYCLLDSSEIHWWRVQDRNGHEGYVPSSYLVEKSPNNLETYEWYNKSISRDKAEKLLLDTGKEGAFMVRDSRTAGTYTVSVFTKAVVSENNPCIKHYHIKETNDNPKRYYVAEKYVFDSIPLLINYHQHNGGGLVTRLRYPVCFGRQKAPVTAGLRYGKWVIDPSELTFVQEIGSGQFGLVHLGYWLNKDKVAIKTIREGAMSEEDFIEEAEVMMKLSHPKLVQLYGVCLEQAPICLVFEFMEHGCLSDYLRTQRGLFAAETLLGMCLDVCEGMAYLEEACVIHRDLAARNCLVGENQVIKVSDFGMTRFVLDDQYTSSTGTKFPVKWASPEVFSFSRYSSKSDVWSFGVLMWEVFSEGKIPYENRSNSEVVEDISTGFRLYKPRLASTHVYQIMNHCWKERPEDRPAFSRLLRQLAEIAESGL

[3] = molecular target: Epidermal growth factor receptor (Homo sapiens, UniProt P00533, L858R); assay: Time-dependent irreversible inhibition of GST-tagged EGFR L858R mutant cytoplasmic domain (669 to 1210 residues) (unknown origin) assessed as apparent inactivation constant (Ki) incubated for 240 mins in presence of ATP by fluorescence based analysis; settings: read-out: Ki(app)
Chain of Epidermal growth factor receptor (Homo sapiens, UniProt P00533, L858R) (P00533 25-1210 L858R limits assumed): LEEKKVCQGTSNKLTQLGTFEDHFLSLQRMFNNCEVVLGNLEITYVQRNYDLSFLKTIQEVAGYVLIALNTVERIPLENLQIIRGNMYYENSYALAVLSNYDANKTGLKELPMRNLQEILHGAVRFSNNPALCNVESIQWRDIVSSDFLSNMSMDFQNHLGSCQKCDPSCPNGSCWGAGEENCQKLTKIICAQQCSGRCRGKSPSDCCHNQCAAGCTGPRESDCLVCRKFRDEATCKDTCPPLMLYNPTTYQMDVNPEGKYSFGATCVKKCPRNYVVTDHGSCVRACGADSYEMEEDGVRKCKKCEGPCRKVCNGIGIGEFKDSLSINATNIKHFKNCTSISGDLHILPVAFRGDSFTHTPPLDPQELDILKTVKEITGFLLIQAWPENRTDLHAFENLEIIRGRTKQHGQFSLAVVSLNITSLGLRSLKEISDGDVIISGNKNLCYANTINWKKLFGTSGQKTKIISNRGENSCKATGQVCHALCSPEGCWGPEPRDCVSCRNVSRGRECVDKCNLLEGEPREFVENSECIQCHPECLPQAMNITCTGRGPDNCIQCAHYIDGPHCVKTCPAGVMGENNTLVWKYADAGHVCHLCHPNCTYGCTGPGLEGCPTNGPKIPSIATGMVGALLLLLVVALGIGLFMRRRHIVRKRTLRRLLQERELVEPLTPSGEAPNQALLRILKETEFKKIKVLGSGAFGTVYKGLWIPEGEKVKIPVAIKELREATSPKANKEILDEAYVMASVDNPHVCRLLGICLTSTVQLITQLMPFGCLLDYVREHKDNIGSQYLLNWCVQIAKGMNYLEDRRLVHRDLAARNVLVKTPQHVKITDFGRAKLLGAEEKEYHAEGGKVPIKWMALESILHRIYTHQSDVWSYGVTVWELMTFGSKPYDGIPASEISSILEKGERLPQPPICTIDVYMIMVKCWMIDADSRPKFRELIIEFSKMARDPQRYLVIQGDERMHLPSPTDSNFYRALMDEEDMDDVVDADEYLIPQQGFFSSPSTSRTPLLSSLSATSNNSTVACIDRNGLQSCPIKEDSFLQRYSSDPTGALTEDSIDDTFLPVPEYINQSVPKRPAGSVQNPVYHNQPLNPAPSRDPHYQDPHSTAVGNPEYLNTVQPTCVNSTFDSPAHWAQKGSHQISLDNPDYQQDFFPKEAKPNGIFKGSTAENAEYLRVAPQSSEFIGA

BaF3 [4] = assay: cells; settings: Mus musculus, BaF3, 72 h
HCC827 = assay: cells; settings: Homo sapiens, HCC827, 72 h
[5] = molecular target: T2, Cytoplasmic tyrosine-protein kinase BMX (Homo sapiens) (UniProt P51813); assay: Inhibition of BMX (unknown origin) at 1 uM by Eurofins DiscoverX KINOMEscan analysis
T2 sequence (whole entry): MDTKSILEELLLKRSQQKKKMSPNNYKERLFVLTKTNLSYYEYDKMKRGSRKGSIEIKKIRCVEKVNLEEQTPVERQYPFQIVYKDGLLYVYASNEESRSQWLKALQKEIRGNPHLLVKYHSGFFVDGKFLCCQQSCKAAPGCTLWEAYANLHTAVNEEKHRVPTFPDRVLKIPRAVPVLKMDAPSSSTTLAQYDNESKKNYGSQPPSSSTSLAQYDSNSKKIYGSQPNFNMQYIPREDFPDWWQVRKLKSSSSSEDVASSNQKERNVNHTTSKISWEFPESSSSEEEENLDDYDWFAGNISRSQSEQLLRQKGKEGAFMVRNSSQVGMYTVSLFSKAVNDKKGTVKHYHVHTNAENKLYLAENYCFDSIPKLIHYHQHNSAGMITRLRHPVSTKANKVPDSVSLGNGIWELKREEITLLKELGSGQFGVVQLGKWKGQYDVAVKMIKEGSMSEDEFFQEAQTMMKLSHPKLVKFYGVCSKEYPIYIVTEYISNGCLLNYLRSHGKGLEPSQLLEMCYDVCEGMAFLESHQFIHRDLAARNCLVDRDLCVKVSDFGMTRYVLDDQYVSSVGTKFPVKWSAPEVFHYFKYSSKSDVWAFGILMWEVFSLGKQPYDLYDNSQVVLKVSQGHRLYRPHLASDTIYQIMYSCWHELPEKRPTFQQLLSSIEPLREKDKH

[6] = molecular target: T3, Dual specificity mitogen-activated protein kinase kinase 7 (Homo sapiens) (UniProt O14733); assay: Inhibition of MKK7 (unknown origin) at 1 uM by Eurofins DiscoverX KINOMEscan analysis
T3 sequence (whole entry): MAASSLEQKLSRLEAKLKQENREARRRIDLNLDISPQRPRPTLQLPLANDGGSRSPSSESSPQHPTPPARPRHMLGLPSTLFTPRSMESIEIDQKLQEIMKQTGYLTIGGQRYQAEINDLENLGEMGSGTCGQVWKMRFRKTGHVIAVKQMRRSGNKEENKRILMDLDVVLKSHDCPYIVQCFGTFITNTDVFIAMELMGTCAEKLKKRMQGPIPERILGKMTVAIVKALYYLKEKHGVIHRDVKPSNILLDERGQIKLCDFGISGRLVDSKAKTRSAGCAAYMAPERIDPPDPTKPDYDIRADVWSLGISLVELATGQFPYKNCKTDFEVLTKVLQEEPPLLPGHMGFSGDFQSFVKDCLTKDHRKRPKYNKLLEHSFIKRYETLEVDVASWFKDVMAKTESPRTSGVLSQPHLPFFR

[7] = molecular target: Epidermal growth factor receptor (Homo sapiens, UniProt P00533, L858R/T790M); assay: Time-dependent irreversible inhibition of GST-tagged EGFR L858R/T790M mutant cytoplasmic domain (669 to 1210 residues) (unknown origin) assessed as apparent inactivation constant (Ki) incubated for 240 mins in presence of ATP by fluorescence based analysis; settings: read-out: Ki(app)
Chain of Epidermal growth factor receptor (Homo sapiens, UniProt P00533, L858R/T790M) (P00533 25-1210 T790M/L858R limits assumed): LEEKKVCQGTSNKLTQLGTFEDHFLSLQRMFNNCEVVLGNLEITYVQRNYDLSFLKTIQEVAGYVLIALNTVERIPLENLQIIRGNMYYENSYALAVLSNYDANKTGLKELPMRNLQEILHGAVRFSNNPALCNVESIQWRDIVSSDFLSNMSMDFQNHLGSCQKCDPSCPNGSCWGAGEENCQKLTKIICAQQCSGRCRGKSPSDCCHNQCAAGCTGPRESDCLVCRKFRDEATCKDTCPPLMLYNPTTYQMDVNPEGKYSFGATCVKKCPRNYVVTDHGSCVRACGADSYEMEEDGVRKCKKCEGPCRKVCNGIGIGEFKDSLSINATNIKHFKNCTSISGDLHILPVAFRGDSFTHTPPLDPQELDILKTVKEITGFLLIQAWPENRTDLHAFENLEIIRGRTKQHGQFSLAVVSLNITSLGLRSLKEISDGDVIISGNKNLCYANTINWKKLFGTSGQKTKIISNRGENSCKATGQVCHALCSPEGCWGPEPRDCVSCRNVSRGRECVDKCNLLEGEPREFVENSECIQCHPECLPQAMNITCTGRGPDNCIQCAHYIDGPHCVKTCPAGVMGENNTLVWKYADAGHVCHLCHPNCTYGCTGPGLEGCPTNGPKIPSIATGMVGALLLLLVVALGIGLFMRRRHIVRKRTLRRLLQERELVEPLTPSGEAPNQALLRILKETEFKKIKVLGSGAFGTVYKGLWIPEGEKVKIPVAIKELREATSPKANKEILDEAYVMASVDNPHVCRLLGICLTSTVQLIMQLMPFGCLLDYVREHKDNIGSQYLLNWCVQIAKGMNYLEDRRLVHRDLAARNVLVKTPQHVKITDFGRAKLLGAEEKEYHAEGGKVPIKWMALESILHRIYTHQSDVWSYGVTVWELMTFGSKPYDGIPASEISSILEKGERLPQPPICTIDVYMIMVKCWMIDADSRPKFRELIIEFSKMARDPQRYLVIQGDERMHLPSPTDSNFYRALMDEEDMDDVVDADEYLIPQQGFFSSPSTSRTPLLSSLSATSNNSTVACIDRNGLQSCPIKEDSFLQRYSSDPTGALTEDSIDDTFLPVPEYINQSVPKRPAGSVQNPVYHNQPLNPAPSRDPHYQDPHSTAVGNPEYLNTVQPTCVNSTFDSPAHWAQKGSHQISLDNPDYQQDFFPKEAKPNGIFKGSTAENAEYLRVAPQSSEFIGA

BaF3 [8] = assay: cells; settings: Mus musculus, BaF3, 72 h; remark: listed apart in the source

For `C=CC(=O)Nc1ccc(OC)c(Nc2cc(-c3[nH]c(SC)nc3-c3cccc(NC(=O)c4cccc(O)c4CN4Cc5ccccc5C4=O)c3)ccn2)c1`, the Stability [1] was “Stable”, the inhibition [2] was “inactive” and the Ki [3] was 276 nM. The EC50 (BaF3 [4]) was 750 nM, the EC50 (HCC827) was 160 nM and the inhibition [5] was “inactive”. The inhibition [6] was “inactive”, the Ki [7] was 543 nM and the EC50 (BaF3 [8]) was 150 nM.
